Experimental data: US8809268B2, “Combination therapy to combat helminth resistance” (The Regents of The University of California, priority 2008, dated 2014)
Converted amounts (≈) assume the structure as drawn. “And” between values parts separate entries of the source, which are not always exact repeats. Equal values may be shown once. Read-outs that look alike come from different tables or passages of the source.

How the values were obtained:
[1] = system: C. elegans; test: whole plant or invertebrate; settings: for LC50: 6 days at 25° C.; for viability of trb mutant nematodes at concentrations where most or all wild-type nematodes were dead: tribendimidine: trb-1 to trb-4, 100 μg/ml and greater, levamisole: trb-1, trb-2, trb-4, 1000 μM or greater
Method: LC50 assays determine the inhibitory concentration at which 50% of the nematodes are dead under certain conditions as calculated using the PROBIT algorithm. LC50 assays start with wild-type (N2) L4 nematodes. To get L4 nematodes, synchronous L1-staged nematodes (as per developmental assay) were plated onto OP50-seeded ENG plates (see below) and put at 20° for 44 h. The now L4-staged larvae were then washed off with water, spun down at 1800 rpm for 40 seconds, re-suspended with SS Media, spun again, and re-suspended in special SS Media to a concentration of 4 nematodes/μl. The assay was set up in a 48-well microtiter plate. Each well contained: 5 μl L4 nematodes (˜20 total), 40 μl of OP50 bacteria as a food source (see below for preparation), 20 μl of tribendimidine (prepared as below), 5 μl of FUdR (8 mM stock; see below), and SS Medium for a total of 200 μl. Each well was set up in triplicate. The plates were wrapped in moist paper towels, placed in a covered plastic box, and incubated at 25° C. for 6 days. The plates were then removed from the incubator and the nematodes transferred with a glass pipette into the well of a spot glass. Each nematode was then scored for dead or alive as follows. Using a thin platinum wire, each nematode was touched to see if it moved within 10 seconds of being touched. If it moved, it was scored as alive. If not, the touch was repeated a second time. If it moved after the second touch, it was scored as alive. […] The number of alive and dead nematodes was tallied for each well. The data from triplicate wells were combined into a single data point. The experiment was repeated for a total of three times on three different days (so a total of 9 wells per data point).
A tribendimidine stock solution was prepared at 4 mg/ml at 1% DMSO in SS Media (final concentration in the well will be 0.1% DMSO). 1% DMSO in SS Media was used as a dilutant to set up serial dilutions. For example, tube 1 contained 160 μl of 4 mg/ml Trib in 1% DMSO. Tube 2 contained 80 μl of the solution in Tube 1, diluted with 80 μl 1% DMSO (1:1 dilution; tube 2). Tube 3 contained 80 μl of the solution from Tube 2, diluted with 80 microliters 1% DMSO, etc. . . .
The trb mutant nematodes were isolated in the forward genetic screen for tribendimidine resistance described above. The LC50 assay was performed as previously described. A levamisole stock solution (100 mM stock) was prepared in water. Dilutions (2-fold) were made in SS Media accordingly such that 20 μl aliquots were added per well to give rise to the desired concentration.

[2] = system: wild-type C. elegans; format: in vivo, Caenorhabditis elegans
[3] = system: C. elegans; test: Visual assay on tribendimidine, levamisole or pyrantel plates; settings: tribendimidine and levamisole plates 100 μg/ml, pyrantel 100 mM stock 1:50 in agar
Method: Tribendimidine plates: stock solution (4 mg/ml) in water was prepared and added into standard C. elegans NG agar media (2.5 ml/100 ml) to a final concentration of 100 μg/ml. The mixture was poured into 35 mm plates (4 ml/plate). The plates were stored up to one week at 4° C. The plates were spread with OP50, a laboratory strain of E. coli commonly used as a food source for C. elegans. Resistant=good health and motility; susceptible=contracted, pale color, move slowly.

[4] = system: C. elegans; test: Developmental assay on Cry14A dose response plates +/- levamisole; format: in vivo, Caenorhabditis elegans; settings: N2 wild-type, levamisole 0.75 μg/ml
Method: Similar experiments with a strain that produces Cry14A, alone and in combination with levamisole were performed. […] The Bt strain used in these experiments expressed Cry14A and two insecticidal Cry proteins (Cry34A and Cry35A) that are not expected to affect nematodes. […] To confirm this conclusion, an independent test of synergy between levamisole and Cry14A was carried out. In these experiments, N2 wild-type worms were plated onto Cry14A plates+/−levamisole.

[5] = system: C. elegans; test: Brood size assay; format: in vivo, Caenorhabditis elegans; settings: bre-5 mutant vs wild-type, 200 μg/ml tribendimidine, P<0.01
Method: L4 staged worms were used. One worm was picked up with an eyelash pick and placed in SS Media in a 48-well plate. […] The total volume was 200 μl. Each drug concentration was repeated in triplicate. The plates were incubated for 64 h at 25° C. The progeny were then transferred out of the well with a pipette onto an empty NG agar plate for counting. The experiment was repeated a total of three times.

[6] = system: C. elegans; test: whole plant or invertebrate; format: in vivo, Caenorhabditis elegans; settings: for IC50: Caenorhabditis elegans, 60 h
[7] = Caenorhabditis elegans, 144 h, bre-2 mutant (Cry5B-resistant)
[8] = Caenorhabditis elegans, 144 h, bre-5 (ye17) mutant (Cry5B-resistant)
[9] = Caenorhabditis elegans, 144 h, wild-type (N2), L4 nematodes
[10] = combination of Cry5B and nAChR agonist, 1:1 ratio (μg/ml)
[11] = trb-1, trb-2, trb-3, trb-4 mutants
[12] = combination of Cry6A and levamisole
[13] = combination of Cry21A and levamisole, 3 days at 20° C.
[14] = combination of levamisole and Bt strain producing Cry14A (also Cry34A, Cry35A)

| Structure (SMILES) | LC50 [1, 7] | LC50 [1, 8] | LC50 [1, 9] | LC50 ([1]; wild-type (N2), L4 nematodes) | synergism factor (CI value) at ED75 [2, 10] | synergism factor (CI value) at ED90 [2, 10] | synergism factor (CI value) at ED95 [2, 10] | appearance of nematodes on drug plates [3, 11] | appearance of nematodes on drug plates ([3]; wild-type) | viability of trb mutant nematodes at concentrations where most or all wild-type nematodes were dead [1] | also measured |
| --- | --- | --- | --- | --- | --- | --- | --- | --- | --- | --- | --- |
| CN1CCCN=C1/C=C/c1cccs1 [Pyrantel] | 10.9 µg/mL (≈ 52.7 µM) | 114 µg/mL (≈ 553 µM) | 502 µg/mL (≈ 2430 µM) | 594.956 µg/mL (≈ 2880 µM) | 0.74 | 0.73 | 0.72 | resistant | sick |  |  |
| c1ccc([C@H]2CN3CCSC3=N2)cc1 [Levamisole] | 1.16 µg/mL (≈ 5.68 µM) | 9.99 µg/mL (≈ 48.9 µM) | 19.6 µg/mL (≈ 96 µM) | 11.712 µg/mL (≈ 57.3 µM) | 0.29 | 0.22 | 0.19 | resistant | sick | mostly or all alive | % alive ([1]; trb-3(ye494) nematodes at 1 mM (1000 μM) levamisole): > 40%; effect of levamisole alone on worm development [4]: does not inhibit worm development; synergism factor (CI value) at ED75 [2, 12]: 0.96; synergism factor (CI value) at ED90 [2, 12]: 0.86; synergism factor (CI value) at ED95 [2, 12]: 0.82; synergism factor (CI value) at ED75 [2, 13]: 0.52; synergism factor (CI value) at ED90 [2, 13]: 0.42; synergism factor (CI value) at ED95 [2, 13]: 0.37; synergism factor (CI value) at ED75 [2, 14]: 0.60; synergism factor (CI value) at ED90 [2, 14]: 0.50; synergism factor (CI value) at ED95 [2, 14]: 0.44 |
| C/C(=N\c1ccc(/N=C/c2ccc(/C=N/c3ccc(/N=C(\C)N(C)C)cc3)cc2)cc1)N(C)C [Tribendimidine] | 7.27 µg/mL (≈ 16.1 µM) | 12.3 µg/mL (≈ 27.2 µM) | 54.4 µg/mL (≈ 120 µM) | 58.372 µg/mL and 57.38 µg/mL | 0.28 | 0.19 | 0.14 | resistant | sick | mostly or all alive | brood size, mutant relative to wild-type [5]: reduced significantly; response of levamisole-resistant mutants in LC50 assay ([1]; mutants in 11 levamisole resistance genes (lev-1, lev-8, lev-9, lev-10, lev-11, unc-22, unc-29, unc-38, unc-50, unc-63, unc-74), high concentrations): resistant to tribendimidine; IC50 ([6]; read-out: IC50 (inhibitory concentration at which 50% of the larvae are unable to complete development), wild-type (N2), L1 larvae, 60 h at 20° C.): 18.4 µg/mL (≈ 40.6 µM); IC50 ([6]; read-out: IC50 (larval development), bre-5 (ye17) mutant (Cry5B-resistant), 60 h at 20° C.): 13.2 µg/mL (≈ 29.1 µM); IC50 (inhibitory concentration at which 50% of the larvae are unable to complete development) ([6]; wild-type (N2), L1 larvae, 60 h at 20° C.): 14.718 µg/mL |
